Experimental data reported in patent US20160122330A1, “PIPERIDINYL BENZOIMIDAZOLE DERIVATIVES AS MPGE-1 INHIBITORS” (NOVASAID AB, priority 2013, published 2016).

Assays:
[1] = target: T1, recombinant membrane-bound human mPGEs-1 (Homo sapiens, UniProt O14684); experiment: Thiobarbituric acid assay (TBA-MDA assay), inhibition of human mPGEs-1; assay type: biochemical; settings: arithmetic mean values
T1 sequence (O14684 1-152): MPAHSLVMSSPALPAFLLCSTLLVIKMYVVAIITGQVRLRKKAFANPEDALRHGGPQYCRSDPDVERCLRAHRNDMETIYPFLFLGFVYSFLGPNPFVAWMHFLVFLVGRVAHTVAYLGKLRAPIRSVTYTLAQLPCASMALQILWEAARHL
Excerpt: Malondialdehyde is a product of lipid peroxidation and reacts with thiobarbituric acid forming a red product that absorbs light at 535 nm (W. G. Niehaus, Jr and B. Samuelsson, Eur. J. Biochem 6, 126 (1968)) and is also fluorescent. The extinction coefficient of the TBA-MDA conjugate is 1.56×10^5 M^−1 cm^−1 (E. D. Wills. Biochem. J. 113, 315 (1969). The method used for detection of inhibition of mPGEs-1 is based on the detection of the amount of remaining PGH2. This method was described more than 20 years ago by Basevich et al (Bioorg. Khim. 1983, 9(5), 658-665).
The assay used was a modified variant and used citric acid instead of the TCA-TBA-HCl reagent described in the original assay. In this assay, recombinant membrane-bound human mPGEs-1 was incubated with PGH2. The reaction was stopped by adding citric acid to a final pH 3 and a large excess of iron(II) chloride (20 mM) to convert any remaining PGH2 into MDA and 12-HHT. TBA reagent was finally added (0.67%) and the samples were heated at 80° C. for 30 min. The fluorescence of the conjugate was measured at 485/545 nm.
The product of mPGEs-1 (PGE2) was not measured directly in this assay, but rather the remaining substrate (PGH2) indirectly by adding FeCl2 that converts PGH2 into MDA and 12-HHT. As a positive control, a known mPGEs-1 inhibitor, MK-886, was used and the inhibition afforded by the new inhibitors was compared with that obtained from MK-886.

[2] = system: A549 lung carcinoma cells; experiment: A549 cell-assay, cellular PGE2 synthesis; assay type: cell-based; settings: Homo sapiens, PGE2 content by EIA, TNFalfa/IL-1beta stimulated cells, 10 μM arachidonic acid, arithmetic mean values
Procedure: Prostaglandin detection kits were purchased from Cayman Chemicals and used according to the instruction of the manufacturer.
A549 lung carcinoma cells, seeded at a density of 10,000 cells/well, were grown in 96 well tissue culture plates. TNFalfa (5 ng/mL) and IL-1beta (5 ng/mL) were added and the cells were incubated for 16 hours. Cells were washed in PBS and test compounds at the appropriate concentration in HBSS/0.1% BSA were added. After 30 minutes of incubation with test compounds, 10 μM arachidonic acid was added and cells were further incubated for 30 minutes. Supernatant was collected and analyzed for PGE2 content by EIA according to manufacturer's instructions.

IC50 [1] [nM] | IC50 [2] [nM] | Compound
18 | 28 | Cc1cc2c(cc1Cl)nc(N1CCC(C(=O)N[C@@H]3CCOC3)CC1)n2-c1cccc(C(F)(F)F)n1 [Example 1, (R)-1-(5-chloro-6-methyl-1-(6-(trifluoromethyl)pyridin-2-yl)-111-benzo[d]imidazol-2-yl)-N-(tetrahydrofuran-3-yl)piperidine-4-carboxamide]
24 | 52 | Cc1cc2nc(N3CCC(C(=O)N[C@@H]4CCOC4)CC3)n(-c3cccc(C(F)(F)F)n3)c2cc1Cl [Example 2, (R)-1-(6-chloro-5-methyl-1-(6-(trifluoromethyl)pyridin-2-yl)-1H-benzoimidazol-2-yl)-N-(tetrahydrofuran-3-yl)piperidine-4-carboxamide]
58 | 85 | Cc1cc2c(cc1Cl)nc(N1CCC(C(=O)N[C@@H]3CCOC3)CC1)n2-c1ccc(C(F)(F)F)cn1 [Example 3, (R)-1-(5-chloro-6-methyl-1-(5-(trifluoromethyl)pyridin-2-yl)-1H-benzo[d]imidazol-2-yl)-N-(tetrahydrofuran-3-yl)-piperidine-4-carboxamide]
46 | 122 | Cc1cc2nc(N3CCC(C(=O)N[C@@H]4CCOC4)CC3)n(-c3ccc(C(F)(F)F)cn3)c2cc1Cl [Example 4, (R)-1-(6-chloro-5-methyl-1-(5-(trifluoromethyl)pyridin-2-yl)-1H-benzo[d]imidazol-2-yl)-N-(tetrahydrofuran-3-yl)-piperidine-4-carboxamide]
